Assay results published in patent US20250188085A1, “COMPOSITIONS AND METHODS FOR INHIBITION OF RAS” (THERAS, INC., priority 2022, published 2025).
Read-outs that look alike come from different tables or passages of the source.

How the values were obtained:
[1] = biological target: T1, GppNHp-loaded KRAS4b (amino acids 1-169) G12C/C118S protein (Homo sapiens, UniProt P01116, C118S/G12C); assay: Covalent cysteine 12 modification by MALDI-TOF MS, GppNHp-loaded KRAS G12C; format: binding; conditions: 15 minutes reaction time point
T1 construct: KRAS4b (amino acids 1-169) G12C/C118S protein; made in house
Procedure: (§1) Reaction: 1 μM of GppNHp-, GTP-, or GDP-loaded KRAS4b (amino acids 1-169) G12C/C118S protein (produced in-house by Protein Expression Laboratory, FNLCR/Leidos Biomed) in 20 mM 4-(2-hydroxyethyl)-1-piperazineethanesulfonic acid (HEPES) buffer containing 150 mM NaCl, 1 mM MgCl2, pH 7.3 was prepared freshly before assay. Ten-μL aliquots of protein were dispensed onto low volume 384-well plate, then 375 nL DMSO, and 25 nL of tested compounds from 5 mM DMSO stocks were added to appropriate wells using ECHO 555 acoustic liquid handler (Labcyte Inc.). For each reaction/assay, three blanks were prepared by mixing 10 μL of protein solution with 400 nL DMSO. The contents of the wells were carefully mixed by aspiration, and then each plate was sealed with an adhesive cover, centrifuged at 2000 g for 1 minute, and kept in the dark at room temperature until 5 min, 15 min, 30 min, or 2 h collections.
(§2) Target pretreatment: Before each assay MALDI target (Bruker MPT 384 ground steel BC) was pre-treated by pipetting on each spot 0.75 μL of saturated sinapinic acid in acetonitrile (ACN).
(§3) Sample preparation: At collection time point, 2 μL of reaction mixtures were pipetted out into 20 μL MALDI matrix solution (saturated solution of sinapinic acid in 1:1 ACN:water solution containing 0.75% trifluoroacetic acid (TFA)) deposited on 384 well polypropylene plate. Resulting solution was mixed by aspiration, centrifuged at 2000 g for 1 minute, then 1 μL aliquots were dispensed on pre-treated MALDI target using Beckman Coulter Biomek FXP 96/384-Span-8 Laboratory Automation Workstation. Finally, the MALDI target was dried under mild vacuum to produce spots with fine crystalline structure.
(§4) Measurements: MALDI-TOF measurements were performed on a Bruker Daltonics rapiflex Tissuetyper TOF-TOF mass spectrometer using linear mode and mass range from 18.6 to 21.6 kDa. Detector gain was set to 3.3× (483 V), sample rate to 5 GS/s, real time smoothing to medium (175 MHz), laser smart beam pattern was set to: “MS Thin Layer M5”, and the laser frequency was 10000 Hz. Spectra were automatically collected using custom Auto Xecute method. Laser power was auto adjusted using fuzzy control. The peak selection range was set to be between 19000 and 21500 Da. Peak evaluation uses half width parameter set to be smaller than 40 Da for processed spectrograms (centroid peak detection; smoothed by SavitzkyGolay algorithm using 7 m/z width and 2 cycles; baseline was subtracted using median algorithm with flatness 1 and median level 0.01). Fuzzy control used Proteins/Oligonucleotides protocol with minimum half width 1/10 times above threshold. Up to 40000 satisfactory shots were collected in 10000 shot steps. Dynamic termination was implemented to finish data collection when peak signal/noise ratio was reaching value of 50.
(§5) Spectra processing: Spectra were smoothed by SavitzkyGolay algorithm using 7 m/z width and three cycles. Centroid peak detection algorithm was used with signal to noise threshold set to 6, relative intensity threshold 4%, peak width 10 m/z and median baseline subtraction using flatness of 1 and median level of 0.01. Peak intensity and area under the peak were evaluated and recorded for all peaks between 19,300 Da and 21,550 Da.
(§6) Calculation of percent modification: Percent modification was calculated as a ratio of peak height for protein modified by compound to sum of peak height of remaining protein plus peak height for protein modified by compound. If multiple modifications were observed each was calculated as a ratio of peak height for given modification versus sum of peak heights for all observed protein species. Data reported in Table 5 are from 15 minutes reaction time point.

[2] = biological target: T2, GDP-loaded KRAS4b (amino acids 1-169) G12C/C118S protein (Homo sapiens, UniProt P01116, C118S/G12C); assay: Covalent cysteine 12 modification by MALDI-TOF MS, GDP-loaded KRAS G12C; format: binding; conditions: 15 minutes reaction time point
T2 construct: KRAS4b (amino acids 1-169) G12C/C118S protein; made in house
Procedure: as §1, §2, §3, §4, §5, §6

[3] = biological target: T3, Avi-KRAS G12C (1-169) GppNHp/RAF1 RBD-3×FLAG (52-151) (Homo sapiens, UniProt P01116, G12C); assay: Raf1 RBD-KRAS G12C-GppNHp disruption (protein:protein interaction HTRF assay); format: biochemical
T3 construct: Avi-KRAS G12C (1-169) GppNHp/RAF1 RBD-3×FLAG (52-151)
Procedure: A protein: protein (PPI) interaction Homogeneous Time Resolved Fluorescence (HTRF) assay was used to determine the effectiveness of compounds of the present disclosure in disrupting KRAS G12C protein and effector (RAF1 or PIK3CA) binding.
The HTRF assay used the following reagents and proteins: 50 nM Avi-KRAS G12C Q25A (1-169) GppNHp/3×FLAG-PI3K CA (157-299); 50 nM Avi-KRAS G12C (1-169) GppNHp/RAF1 RBD-3×FLAG (52-151); 35 nM Avi-PI3K RBD-3×FLAG; Assay Buffer: 50 mM Tris pH 7.5, 100 mM NaCl, 5 mM MgCl2, 0.1% BSA, 0.01% Tween 20, 10% DMSO; Bead Buffer: 50 mM Tris pH 7.5, 0.01% Tween 20; Assay volume: 20 μL (384 well plate-low volume format); and Compound titration: 30-0.02 μM, 3× dilution series.
The HTRF assay employed the following protocol:
Compounds were dispensed in assay plate (384-well, Grenier Bione #784075) using Echo (model 555) with dose response settings: 200 nL final volume, titration from 100 μM as a 10-point dilution series. KRAS proteins were prepared in assay buffer, and dispensed on plates, 5 μL per well, then incubated for 1 h at room temperature, with 700 rpm shaking. RAF1 RBD and PI3K RBD CA were prepared in assay buffer, dispensed onto plates, 5 μL per well, and then incubated for 1 h at room temperature, with 700 rpm shaking. Reagent mix was then prepared and dispensed on plates, 10 μL per well, and then incubated for 1 h at room temperature, with 700 rpm shaking.
Plates were analyzed on an Envision plate reader using the following setting: Excitation 320 nm, Bandwidth 75 nm; Emission 615 nm, Bandwidth 85 nm; Gain 100%; Flashes 100; Lag 60 μs. Data was reported as percentage of activity, with DMSO as 100%. Data was plotted and analyzed using Prism 8.

pERK in NCI-H358 cells = assay: Cell-based pERK HTRF assay; conditions: 30 min incubation, read-out: pERK in NCI-H358 cell inhibition IC50
Procedure: pERK assays (Perkin Elmer) were used to determine the effectiveness of compounds of the present disclosure in disrupting KRAS G12C protein/effector signaling in cells.
On Day 1, cells (NCI-H358) were seeded into 96-well plates at 4×10^4 cells/well in complete growth media (RPMI, 10% FBS).
On Day 2, cells were treated with compounds at 0.25% DMSO. The source plate was created with compounds diluted in media at 5-fold the final assay concentration. The compounds were run in a 9-point concentration curve starting at 75 μM, with a 3-fold dilution between concentrations. 20 μL was transferred onto the cell plates (final volume in wells was 100 μL). Plates were harvested after 30 min incubation by aspirating media and adding kit-supplied 1× supplemented lysis buffer to all wells (75 μl per well). Plates were then placed on a plate shaker and incubated at 850 rpm for an additional 30 min.
Antibody mixture solution was prepared by diluting aliquoted d2 and Eu Cryptate antibodies 1:20 in kit supplied detection buffer, then mixed the diluted antibodies solutions (1:1 v:v). 4 μL of this solution was then added to a 384-well detection plate (Perkin Elmer; 6008230).
Samples were homogenized by pipetting up and down and then transferred (16 μL of cell lysates) from the 96-well cell culture plate to two wells of the HTRF 384-well detection plate containing the antibody solution. Plates were centrifuged (524 g for Imin) and allowed to incubate between 4 and 24 h at room temperature. Maximum signal is reached after 4 h incubation time and remains stable over a period of 24 hours. Therefore, readings can be made between 4 and 24 h of incubation. Plates were centrifuged again (524 g for Imin) and analyzed on the En Vision plate reader using the following settings: Excitation 320 nm, Bandwidth 75 nm; Emission 615 nm, Bandwidth 85 nm; Gain 100%; Flashes 100; Lag 60 μs.

| GppNHp-KRAS G12C percent of modification [1] | GDP-KRAS G12C percent of modification [2] | IC50 [3] [nM] | IC50 (pERK in NCI-H358 cells) [nM] | IC50 (pERK in NCI-H358 cells; Homo sapiens, NCI-H358, 0.5 h) [nM] | SMILES |
| --- | --- | --- | --- | --- | --- |
| D (percent of modification <10%) | D (percent of modification <10%) | 500 to 5000 | 100 to 1000 | – | C=CC(=O)N1CC[C@@H](Oc2nc(OC[C@@]34CCCN3C[C@H](F)C4)nc3c(F)c(-c4ccc(F)c5sc(N)nc45)c(C(F)(F)F)cc23)C1 (single isomer, unassigned) [Compound 12] |
| B (50≤percent of modification <70%) | A (percent of modification ≥70%) | ≤ 500 | ≤ 100 | – | C=CC(=O)N1CC[C@@H](Oc2nc(OC[C@@H]3C[C@@H](OC)CN3C)nc3c(F)c(-c4ccc(F)c5sc(N)nc45)c(C(F)(F)F)cc23)C1 (single isomer, unassigned) [Compound 14] |
| D (percent of modification <10%) | D (percent of modification <10%) | > 20000 | > 1000 | – | C=CC(=O)N1CC[C@@H](Oc2nc(OC[C@@H]3C[C@@H](OC)CN3C)nc3c(F)c(-c4ccc(F)c5sc(N)nc45)c(C(F)(F)F)cc23)C1 (single isomer, unassigned) [Compound 15] |
| A (percent of modification ≥70%) | A (percent of modification ≥70%) | ≤ 500 | ≤ 100 | – | C=CC(=O)N1CC[C@@H](Oc2nc(OC[C@]34CCCN3C[C@H](OC)C4)nc3c(F)c(-c4ccc(F)c5sc(N)nc45)c(C(F)(F)F)cc23)C1 (single isomer, unassigned) [Compound 30] |
| D (percent of modification <10%) | D (percent of modification <10%) | 500 to 5000 | > 1000 | – | C=CC(=O)N1CC[C@@H](Oc2nc(OC[C@]34CCCN3C[C@H](OC)C4)nc3c(F)c(-c4ccc(F)c5sc(N)nc45)c(C(F)(F)F)cc23)C1 (single isomer, unassigned) [Compound 31] |
| C (10%≤modification <50%) | A (percent of modification ≥70%) | 500 to 5000 | – | 100 to 1000 | C=CC(=O)N1CC(Oc2nc(OC[C@@H]3CCCN3C)nc3c(F)c(-c4ccc(F)c5sc(N)nc45)c(Cl)cc23)C1 [Compound 1] |
| D (percent of modification <10%) | B (50≤percent of modification <70%) | 500 to 5000 | – | 100 to 1000 | CC#CC(=O)N1CC(Oc2nc(OC[C@@H]3CCCN3C)nc3c(F)c(-c4ccc(F)c5sc(N)nc45)c(Cl)cc23)C1 [Compound 2] |
| D (percent of modification <10%) | D (percent of modification <10%) | > 20000 | – | > 1000 | C=CC(=O)N1CC(Oc2nc(OC[C@@]34CCCN3C[C@H](F)C4)nc3c(F)c(-c4ccc(F)c5sc(N)nc45)c(C(F)(F)F)cc23)C1 [Compound 7, 1-(3-((7-(2-amino-7-fluorobenzo[d]thiazol-4-yl)-8-fluoro-2-(((2R,7aS)-2-fluorotetrahydro-1H-pyrrolizin-7a (5H)-yl)methoxy)-6-(trifluoromethyl)quinazolin-4-yl)oxy)azetidin-1-yl) prop-2-en-1-one] |
| B (50≤percent of modification <70%) | A (percent of modification ≥70%) | ≤ 500 | – | 100 to 1000 | C=CC(=O)N1CC[C@@H](Oc2nc(OC[C@@H]3CCCN3C)nc3c(F)c(-c4ccc(F)c5sc(N)nc45)c(C(F)(F)F)cc23)C1 [Compound 13] |
| C (10%≤modification <50%) | A (percent of modification ≥70%) | ≤ 500 | – | ≤ 100 | C=CC(=O)N1CC(Oc2nc(OC[C@@H]3CCCN3C)nc3c(F)c(-c4ccc(F)c5sc(N)nc45)c(C(F)(F)F)cc23)C1 [Compound 22] |
| C (10%≤modification <50%) | B (50≤percent of modification <70%) | 500 to 5000 | – | 100 to 1000 | C=CC(=O)N1CC(Oc2nc(OC[C@@H]3C[C@@H](F)CN3C)nc3c(F)c(-c4ccc(F)c5sc(N)nc45)c(C(F)(F)F)cc23)C1 [Compound 23] |
| C (10%≤modification <50%) | A (percent of modification ≥70%) | 500 to 5000 | – | ≤ 100 | C=CC(=O)N1CC(Oc2nc(OC[C@@H]3C[C@@H](OC)CN3C)nc3c(F)c(-c4ccc(F)c5sc(N)nc45)c(C(F)(F)F)cc23)C1 [Compound 26] |
